Results on 48 molecules are retold here after patent publication US10034886B2, “GLP-1 receptor modulators” (Celgene International II SÀRL, priority 2014, dated 2018).

This assay addresses T1, GLP-1R (Homo sapiens, UniProt P43220).
T1 construct: host or cells: GLP-1R CRE-bla CHO-K1 cells
Nature of the assay: EC20 GLP-1(9-36) PAM cAMP assay: dose response of compound in the presence of fixed concentration of GLP-1(9-36). Type of assay: cell-based. As to conditions: GLP-1R CRE-bla CHO-K1 cells, read-out: EC20 GLP-1(9-36) PAM EC50. The procedure, abridged:
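Positive allosteric modulation read as cAMP accumulation: compound titrations (12 points) combined with an EC20 level of GLP-1(9-36) on CHO-K1 GLP-1R CRE-bla cells, IBMX present, 30 min, 37 °C, pH 7.4 buffer. Luminescence converted to cAMP via standards; non-linear fit gave EC50 and Emax.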

[1] abbreviates: dose response of compound in presence of fixed concentration of GLP-1(9-36).
The mark [2] stands for this setting: compound dose response with fixed concentration of GLP-1(9-36).

Where two headings read alike, the source gives them in different places.

T1 sequence (P43220 24-463): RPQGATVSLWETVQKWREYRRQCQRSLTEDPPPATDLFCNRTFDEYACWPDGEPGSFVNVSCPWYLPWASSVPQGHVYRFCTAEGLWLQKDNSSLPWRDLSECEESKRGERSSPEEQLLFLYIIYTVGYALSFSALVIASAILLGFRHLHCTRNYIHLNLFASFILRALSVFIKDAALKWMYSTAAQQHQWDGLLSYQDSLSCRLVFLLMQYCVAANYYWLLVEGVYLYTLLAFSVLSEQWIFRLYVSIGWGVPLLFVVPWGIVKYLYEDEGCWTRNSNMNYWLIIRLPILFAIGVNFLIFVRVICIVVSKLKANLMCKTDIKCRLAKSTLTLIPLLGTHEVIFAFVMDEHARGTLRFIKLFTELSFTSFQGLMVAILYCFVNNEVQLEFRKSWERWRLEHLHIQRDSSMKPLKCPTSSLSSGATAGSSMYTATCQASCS
T1 sequence (P01275 100-127 partner limits assumed): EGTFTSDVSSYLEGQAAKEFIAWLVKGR

With `CCCCCCCOc1ccc(-c2cnc(-c3ccc(C[C@H](NC(=O)c4cnn(C(C)(C)C)c4)C(=O)N4CC[C@H](C(=O)O)C4)cc3)nc2)cc1` [Compound 867], under setting [1], the half-maximal effective concentration (EC50) was 800 to 2500 nM.
On the same count and under the same terms, with `CCCCC(=O)c1ccc(-c2cnc(-c3ccc(C[C@H](NC(=O)c4ccc(C(C)(C)C)s4)C(=O)N[C@H](C)C(=O)O)cc3)nc2)c(C)c1` [Compound 1014] the figure was 5000 to 10000 nM; with `CCCCCC(=O)c1ccc(-c2cnc(-c3ccc(C[C@H](NC(=O)c4ccc(C(C)(C)C)s4)C(=O)N4CC[C@H](C(=O)O)C4)cc3)nc2)cc1` [Compound 766], 2500 to 5000 nM; with `CCCCCCCOc1ccc(-c2cnc(-c3ccc(C[C@H](NC(=O)c4ccc(C(C)(C)C)s4)C(=O)N[C@@H](CN)C(=O)O)cc3)nc2)cc1` [Compound 394], 2500 to 5000 nM.
Regarding `CC[C@H]1CC[C@H](c2ccc(-c3cnc(-c4ccc(C[C@H](NC(=O)c5ccc(C(C)(C)C#N)s5)C(=O)N5CC(C(=O)O)C5)cc4)nc3)cc2)CC1` [Compound 1339], under setting [2], the EC50 was under 800 nM.
As for `CCCCCCCOc1ccc(-c2cnc(-c3ccc(C[C@H](NC(=O)c4ccc(C(C)(C)C)s4)C(=O)NC(C(=O)O)C(O)c4ccccc4)cc3)nc2)cc1` (stereo partly drawn) [Compound 634], under setting [1], the EC50 was under 800 nM.
Still for that read-out and setting: with `CCCCCCCOc1ccc(-c2cnc(-c3ccc(C[C@H](NC(=O)c4ccc(CC(C)C)cc4)C(=O)N4CC(C(=O)O)C4)cc3)nc2)cc1` [Compound 1116] the figure was 800 to 2500 nM.
On the same count and under the same terms, in the case of `CCCCCCCOc1ccc(-c2cnc(-c3ccc(C[C@H](NC(=O)c4ccc(C(C)(C)C)s4)C(=O)NCC(C)O)cc3)nc2)cc1` (stereo partly drawn) [Compound 388] it was 2500 to 5000 nM; in that of `CCCCCCCOc1ccc(-c2cnc(-c3ccc(C[C@H](NC(=O)c4ccc(CCCC)cc4)C(=O)N4CCC[C@H]4C(=O)O)cc3)nc2)cc1` [Compound 1075], 800 to 2500 nM; in that of `CCCCCCCOc1ccc(-c2cnc(-c3ccc(C[C@H](NC(=O)c4ccc(C(C)(C)C)s4)C(=O)N[C@@H](Cc4ccc(O)c(O)c4)C(=O)O)cc3)nc2)cc1` [Compound 601], 800 to 2500 nM.
In the case of `CC(C)(C)c1ccc(C(=O)N[C@@H](Cc2ccc(-c3ncc(-c4ccc(-c5ccc(Cl)c(Cl)c5)cc4F)cn3)cc2)C(=O)N2CC(C(=O)O)C2)s1` [Compound 1200], under setting [1], the EC50 was under 800 nM.
With `CCCCCCCOc1ccc(N2CCN(c3ccc(C[C@H](NC(=O)c4ccc(C(C)(C)C)cc4)C(=O)N[C@H](C)C(=O)O)cc3)CC2)cc1` [Compound 804], the half-maximal effective concentration (EC50) under setting [1] was in the range of 800 to 2500 nM.
On to `CC(C)(C)c1ccc(C(=O)N[C@@H](Cc2ccc(-c3ncc(-c4ccc(OC5CC5)cc4)cn3)cc2)C(=O)N2CC(C(=O)O)C2)s1` [Compound 780], for which the EC50 under setting [1] was 2500 to 5000 nM.
On the same count and under the same terms, in the case of `CCc1ccc(C(=O)N[C@@H](Cc2ccc(-c3ncc(-c4ccc([C@H]5CC[C@H](CC)CC5)cc4)cn3)cc2)C(=O)N2CC(C(=O)O)C2)cc1` [Compound 1168] it was under 800 nM; in that of `CCCCCCCOc1ccc(-c2cnc(-c3ccc(C[C@H](NC(=O)c4ccc(C(C)(C)C)cc4)C(=O)N[C@@H](CCC(N)=O)C(=O)O)cc3)nc2)cc1` [Compound 399], under 800 nM; in that of `CCCCCCCc1ccc(-c2cnc(-c3ccc(C[C@H](NC(=O)c4ccc(C(C)(C)C)s4)C(=O)N[C@H](C)C(=O)O)cc3)nc2)cc1` [Compound 737], under 800 nM.
On the same count and under the same terms, in the case of `CCCCCCCOc1ccc(-c2cnc(-c3ccc(C[C@H](NC(=O)c4ccc(C(C)(C)C)cc4)C(=O)NC4(CC(=O)O)CCOCC4)cc3)nc2)cc1` [Compound 553] it was 800 to 2500 nM; in that of `CCCCCCCOc1ccc(-c2cnc(-c3ccc(C[C@H](NC(=O)c4ccc(C(C)(C)C)s4)C(=O)NC(C(=O)O)c4ccccc4C(F)(F)F)cc3)nc2)cc1` (stereo partly drawn) [Compound 596], 800 to 2500 nM.
For the molecule `CC(C)(C)c1ccc(C(=O)N[C@@H](Cc2ccc(-c3ncc(-c4ccc(-c5ccc(C6CCCCC6)cc5)cc4F)cn3)cc2)C(=O)N2CC(C(=O)O)C2)s1` [Compound 1212], under setting [2], the EC50 was under 800 nM.
As for `COc1ccc(C2CCN(c3cnc(-c4ccc(C[C@H](NC(=O)c5ccc(C(C)(C)C)s5)C(=O)N5CC(C(=O)O)C5)cc4)nc3)CC2)cc1` [Compound 1425], the concentration for a half-maximal effect (EC50) under setting [2] was in the range of 800 to 2500 nM.
On the same count and under the same terms, in the case of `CCCC[C@H]1CC[C@H](c2ccc(-c3cnc(-c4ccc(C[C@H](NC(=O)c5ccc(C(C)(C)C)s5)C(=O)N[C@H](C)C(=O)O)cc4)nc3)cc2)CC1` [Compound 1317] it was under 800 nM.
Regarding `CC(C)(C)c1ccc(-c2cnc(-c3ccc(CC(NC(=O)c4ccc(C(C)(C)C)s4)C(=O)O)cc3F)nc2)cc1` (stereo not drawn) [Compound 391], the EC50 under setting [1] lay in the range of 2500 to 5000 nM.
For the molecule `CCCCCCc1noc(-c2cnc(-c3ccc(C[C@H](NC(=O)c4ccc(C(C)(C)C)cc4)C(=O)NCCC(=O)O)cc3)nc2)n1` [Compound 692], the EC50 under setting [1] was in the range of 5000 to 10000 nM.
The same measure, in the same setting: with `CCCCCCCOc1ccc(-c2cnc(-c3ccc(C[C@H](NC(=O)c4ccc(C(C)(C)C)s4)C(=O)N[C@H](CC(=O)NC)C(=O)O)cc3)nc2)cc1` [Compound 663] the figure was 800 to 2500 nM.
As to `C[C@@H](NC(=O)[C@H](Cc1ccc(-c2ncc(-c3cccc(N4CCCCC4)c3)cn2)cc1)NC(=O)c1ccc(C(C)(C)C)s1)C(=O)O` [Compound 1284], the EC50 under setting [2] was 800 to 2500 nM.
Take `C[C@@H](NC(=O)[C@H](Cc1ccc(-c2ncc(-c3ccc(-c4ccc(OC(F)(F)F)cc4)cc3)cn2)cc1)NC(=O)c1ccc(C(C)(C)C)s1)C(=O)O` [Compound 1314]: the concentration giving a half-maximal response (EC50) under setting [2] is under 800 nM.
The same measure, in the same setting: with `C[C@@H](NC(=O)[C@H](Cc1ccc(-c2ncc(/C=C/c3ccsc3)cn2)cc1)NC(=O)c1ccc(C(C)(C)C)s1)C(=O)O` [Compound 1257] the figure was 2500 to 5000 nM.
On to `CCOc1ccc2cc(-c3cnc(-c4ccc(C[C@H](NC(=O)c5ccc(C(C)(C)C)s5)C(=O)N[C@H](C)C(=O)O)cc4)nc3)ccc2c1` [Compound 992], for which the EC50 under setting [1] was 2500 to 5000 nM.
Take `CC(C)(C)c1ccc(-c2cnc(-c3ccc(C[C@H](NC(=O)c4ccc(C(C)(C)C)s4)C(=O)N4CC[C@H](C(=O)O)C4)cc3)nc2)cc1` [Compound 768]: the concentration for a half-maximal effect (EC50) under setting [1] was 800 to 2500 nM.
For the molecule `CCCc1ccc(-c2ccc(-c3cnc(-c4ccc(C[C@H](NC(=O)c5ccc(C(C)C)cc5)C(=O)N5CC(C(=O)O)C5)cc4)nc3)c(F)c2)cc1` [Compound 1408], the EC50 under setting [2] is under 800 nM.
As for `CCCCCCCOc1ccc(-c2cnc(-c3ccc(C[C@H](NC(=O)c4ccc(C(C)(C)C)cc4)C(=O)N4C[C@H](O)C[C@H]4C(=O)O)cc3)nc2)cc1` [Compound 491], the EC50 under setting [1] was under 800 nM.
As to `CC(C)CCCCOc1ccc(-c2cnc(-c3ccc(C[C@H](NC(=O)c4ccc(C(C)(C)C)s4)C(=O)N4CC[C@H](C(=O)O)C4)cc3)nc2)cc1` [Compound 772], the EC50 under setting [1] was under 800 nM.
For the molecule `CCCCCCCOc1ccc(-c2cnc(-c3ccc(C[C@H](NC(=O)c4ccc(C(C)(C)C)s4)C(=O)N[C@H](C(=O)O)C4CC4)cc3)nc2)cc1` [Compound 405], the EC50 under setting [1] is under 800 nM.
Still for that read-out and setting: with `CCCCCCCOc1ccc(-c2cnc(-c3ccc(C[C@H](NC(=O)c4ccc(C(C)(C)C)s4)C(=O)N4CCC(F)(C(=O)O)C4)cc3)nc2)cc1` (stereo partly drawn) [Compound 652] the figure was under 800 nM; with `CCCCCCCOc1ccc(-c2cnc(-c3ccc(C[C@H](NC(=O)c4ccc(C(C)(C)C)cc4)C(=O)NCCC(=O)O)cc3)nc2)cc1C1CC1` [Compound 704], 800 to 2500 nM; with `CCCCCCCOc1ccc(-c2cnc(-c3ccc(C[C@H](NC(=O)c4ccc(C(C)(C)C)cc4)C(=O)N[C@H](CCCNC(=O)OCc4ccccc4)C(=O)O)cc3)nc2)cc1` [Compound 575], 2500 to 5000 nM.
Turning to `CC(C)Oc1ccc(-c2ccc(-c3cnc(-c4ccc(C[C@H](NC(=O)c5ccc(C(C)(C)C)s5)C(=O)N5CC(C(=O)O)C5)cc4)nc3)c(F)c2)cc1` [Compound 1396], the EC50 under setting [2] was under 800 nM.
With `C[C@@H](NC(=O)[C@H](Cc1ccc(-c2ncc(-c3ccc(C(F)(F)F)cc3)cn2)cc1)NC(=O)c1ccc(C(C)(C)C)s1)C(=O)O` [Compound 742], the EC50 under setting [1] lay in the range of 2500 to 5000 nM.
Same read-out and setting: with `CC(C)CCSc1ccc(-c2cnc(-c3ccc(C[C@H](NC(=O)c4ccc(C(C)(C)C)cc4)C(=O)NCCC(=O)O)cc3)nc2)cc1` [Compound 681] the figure was 5000 to 10000 nM.
Same read-out and setting: with `C[C@@H](NC(=O)[C@H](Cc1ccc(-c2ncc(-c3cc4ccccc4cc3O)cn2)cc1)NC(=O)c1ccc(C(C)(C)C)s1)C(=O)O` [Compound 1008] the figure was 5000 to 10000 nM; with `CCCCCCCOc1ccc(-c2cnc(-c3ccc(C[C@H](NC(=O)c4ccc(C(C)(C)C)cc4)C(=O)NC(CC(=O)O)c4ccccc4)cc3)nc2)cc1` (stereo partly drawn) [Compound 539], 5000 to 10000 nM.
As for `CCCOc1ccc(C(=O)N[C@@H](Cc2ccc(-c3ncc(-c4ccc([C@H]5CC[C@H](CC)CC5)cc4)cn3)cc2)C(=O)O)cc1` [Compound 1377], under setting [2], the EC50 lay in the range of 800 to 2500 nM.
In the case of `CCCCCCCOc1ccc(-c2cnc(-c3ccc(CC(NC(=O)c4ccc(C(C)(C)C)s4)C(=O)NCC4CCN(C)CC4)cc3)nc2)cc1` (stereo not drawn) [Compound 430], the EC50 under setting [1] was 5000 to 10000 nM.
Still for that read-out and setting: in the case of `CCCCCCCOc1ccc(-c2cnc(-c3ccc(C[C@H](NC(=O)c4ccc(C(C)(C)C)cc4)C(=O)N[C@@H](CC)C(=O)O)cc3)nc2)cc1` [Compound 499] it was under 800 nM; in that of `CC(C)(C)c1ccc(C(=O)N[C@@H](Cc2ccc(-c3ncc(-c4ccc(OCCC5CCCCC5)cc4)cn3)cc2)C(=O)N2CC[C@H](C(=O)O)C2)s1` [Compound 774], 800 to 2500 nM; in that of `CCCCCCCOc1ccc(-c2cnc(-c3ccc(C[C@H](NC(=O)c4ccc(C(C)(C)C)cc4)C(=O)N[C@@H](CC(=O)NCCN)C(=O)O)cc3)nc2)cc1` [Compound 484], 800 to 2500 nM.
On to `CCCCCCCOc1ccc(-c2cnc(-c3ccc(C[C@H](NC(=O)c4ccc(C(C)(C)C)s4)C(=O)NCC4(C(=O)O)CCNCC4)cc3)nc2)cc1` [Compound 606], for which the concentration for a half-maximal effect (EC50) under setting [1] is 800 to 2500 nM.
For `CC[C@H]1CC[C@H](c2ccc(-c3cnc(-c4ccc(C[C@H](NC(=O)c5ccc(C6(C#N)CC6)s5)C(=O)N5CC(C(=O)O)C5)cc4)nc3)cc2)CC1` [Compound 1340], the EC50 under setting [2] is under 800 nM.
